What all share (type): in vivo, rat
The subject of assay [1] is ARI caused by ischemia-reperfusion (I/R). Put plainly: I/R model: renal morphologic examination (H&E, PAS). The settings on record: 45 min ischemia and 24 h reperfusion. How it is done:
(§1) Sprague Dawley rats (250˜300 g) were assigned to four groups: (1) sham surgery group without I/R; (2) I/R+saline vehicle treatment; (3) I/R+SS-20 treatment; (4) I/R+SS-31 treatment. Each experimental group consisted of 8 rats. SS-20 and SS-31 (3 mg/kg, dissolved in saline) were administered to rats 30 min before ischemia and immediately before onset of reperfusion. The control rats were given saline alone on the same schedule.
(§2) Rats were anesthetized with a mixture of ketamine (90 mg/kg, i.p.) and xylazine (4 mg/kg, i.p.). The left renal vascular pedicle was occluded temporarily using a micro-clamp for 30 or 45 min. At the end of the ischemic period, reperfusion was established by removing of the clamp. At that time, the contralateral right kidney was removed. After 24 h reperfusion, animals were sacrificed and blood samples were obtained by cardiac puncture. Renal function was determined by blood urea nitrogen (BUN) and serum creatinine (BioAssay Systems DIUR-500 and DICT-500).
Renal Morphologic Examination: Kidneys were fixed in 10% neutral-buffered formalin and embedded in paraffin wax. Three micron sections were stained with hematoxylin-eosin (H&E) and periodic acid-Schiff (PAS) and analyzed by light microscopy. Lesions were scored using the following criteria: [1] mitosis and necrosis of individual cells; [2] necrosis of all cells in adjacent proximal convoluted tubules with survival of surrounding tubules; [3] necrosis confined to the distal third of the proximal convoluted tubule with a band of necrosis extending across the inner cortex; and [4] necrosis affecting all three segments of the proximal convoluted tubule.

The test system of assay [2] is ATP content in renal tissue. The assay is described as follows: I/R model: ATP content assay of kidney tissue. How it is done: as §1, §2
ATP Content Assay: The kidney tissue was immediately put into 10 ml 5% trichloroacetic acid with 10 mM DTT, 2 mM EDTA and cut into small pieces. The tissue was homogenized on ice, incubated for another 10 min, centrifuged for 10 min at 2000×g, and neutralized with 10N KOH to pH 7.6. After centrifugation for 10 min at 2000×g, aliquots of the resulting supernatant were stored at −80° C. ATP was measured by bioluminescence (ATP bioluminescent kit, Sigma, MO, USA).

Assay [3] relates to heme oxygenase-1 (HO-1) expression. The assay is described as follows: 14-day UUO model: RT-PCR for HO-1. The method, then:
Sprague-Dawley rats underwent unilateral ureteral ligation (UUO) with 4-0 silk suture through a midline abdominal incision under sterile conditions. Ureteral obstruction was carried out by ligating the left ureter at the end of lower ureter, just above the ureterovesical junction.
SS-31 (1 mg/kg or 3 mg/kg; n=8) was administered intraperitoneally, one day prior to UUO and continuing for 14 days. A separate group of animals was given saline, as a vehicle control (n=16).
Polymerase Chain Reaction Analysis: PCR for heme oxygenase-1 (HO-1) isolated from kidneys was performed as follows. Rat kidneys were harvested and were kept at −80° C. until use. Total RNA was extracted using the Trizol®-Chloroform extraction procedure. mRNA was purified using the Oligotex mRNA extraction kit (Qiagen, Valencia, Calif.) according to manufacturer's instructions. mRNA concentration and purity were determined by measuring absorbance at 260 nm. RT-PCR was preformed using Qiagen One-step PCR kit (Qiagen, Valencia, Calif.). PCR was performed in an automated thermal cycler ThermoHybrid, PX2 with an initial activation step for 15 min at 95° C. followed by 35 cycles of denaturation for 45 s at 94° C., annealing for 30 s at 60° C., extension for 60 s at 72° C. […] Bands on gels were visualized by ethidium bromide staining and analyzed using Image J densitometric analysis software. […]

The test system of assay [4] is radiocontrast dye-induced renal failure. The assay is described as follows: CIN, indomethacin/L-NAME/iothalamate model, Experiment 1. How it is done:
Animal Model: A model of radiocontrast dye-induced renal failure as described by Agmon et al. J Clin Invest 94:1069-1075 (1994) in this Example. As in humans, radiocontrast dye is generally non-toxic when administered to animals with normal renal function. However, radiocontrast dye can induce ARI in animals with impaired renal function. In this model, impaired renal function was induced by the administration of indomethacin (10 mg/kg) and L-NAME (10 mg/kg). The animals were divided into 3 groups: • 1. Group (1) control (n=8) • 2. Group (2) Indomethcin/L-NAME (given 15 min apart) followed by iothalamate (AngioConray 6 ml/kg) (n=7) • 3. Group (3) SS-31 (3 mg/kg, ip) was given 15 min prior to administration of indomethacin/L-NAME/iothalamate, and a second dose of SS-31 (3 mg/kg) was repeated immediately after drug exposure (n=9)
Experimental Protocol: Rats were kept in metabolic cages (Nalge Co., Rochester, N.Y.) with free access to tap water and standard rat chow. After a baseline 24-h urinary collection, the rats were anesthetized with a mixture of ketamine (90 mg/kg, i.p.) and xylazine (4 mg/kg, i.p.). The left femoral vein and artery were cannulated and a baseline blood sample drawn (1 ml) for measurement of creatinine level. The animals then received the various drug treatments as indicated above. Iothalamate Meglumine 60% (contrast dye; AngioConray 6 ml/kg) was then injected through the arterial cannula. The left femoral artery was then ligated and the cannula removed. Rats were then returned to the metabolic cages for another 24-h urine collection. […]
Renal Function: Renal function was assessed by determining GFR at baseline and 24 h following dye administration. […] Creatinine clearance was analyzed by measuring plasma (Pcr), urinary creatinine (Ucr) levels (Bioassay Systems; DICT-500) and urine volume.
Renal Histology: Kidneys were fixed in 10% neutral-buffered formalin and embedded in paraffin wax. Three micron sections were stained with hematoxylin-eosin (H&E) and periodic acid-Schiff (PAS) and analyzed by light microscopy by a board certified pathologist.

The subject of assay [5] is CCl4 induced chronic nephrotoxicity. The assay is described as follows: CCl4 chronic kidney injury model: renal histology. The following applies: 10 mg/kg s.c. 5 days a week for 7 wks. An excerpt:
Study design and experimental protocol: In this model, SD rats with body weight of 250 g were fed with 0.35 g/L phenobarbital solution (Luminal water) for two weeks, then divided into three groups and treated as follows.
At the end of fifth week, four rats from each group were sacrificed for liver histopathological sectioning and fibrosis examination. In the end of 7th week, all remaining rats in each group were sacrificed, and kidney and liver tissues were harvest for histopathological sectioning and examination.
Renal Histology: Kidneys were fixed in 10% neutral-buffered formalin and embedded in paraffin wax. Three micron sections were stained with hematoxylin-eosin (H&E) and analyzed by light microscopy by a certified pathologist.

As for D-Arg-2′6′Dmt-Lys-Phe-NH2 [SS-31], in assay [1], the histopathological score result is recorded as “significantly improved histopathological score”; the “tubular cell injury (H&E, PAS)” value was “protected brush border and prevented necrosis in the proximal tubules”. In assay [2] (1 h reperfusion following 45 min ischemia, vs vehicle), the “ATP content in renal tissue” value is listed as “significantly higher”. Further, the “ATP content in renal tissue” value in assay [2] (end of 15 min ischemia) was “not altered”. Besides, the “HO-1 expression in the obstructed kidney” value in assay [3] is “decreased HO-1 expression”. For the same substance, in assay [4] (3 mg/kg ip before and after drug exposure), the “rats almost completely protected from the effects of the dye” value is listed as “Six of nine”. Also, in assay [4] (dye-injected), the “PAS staining of kidney” value was “intact brush borders and normal glomeruli”; the “apoptotic cells/hpf (TUNEL)” value is “greatly attenuated”. Also, the “renal histology (H&E)” value in assay [5] is listed as “no observable histopathological change”.

Values taken from patent US11628198B2, “Methods for prevention and treatment of acute renal injury” (Cornell University, priority 2008, dated 2023).
